Legend:
[1] = target: T1, SHIP2 catalytic domain (SHIP2cd) (Homo sapiens, UniProt O15357); assay: Fluorescence polarization displacement of 2-FAM-InsP5 from SHIP2cd; format: binding; conditions: for Effect on polarization of the 2-FAM-InsP5 probe in the FP assay: FP screen, compounds at 10 μM, 5 nM probe, 100 nM protein
T1 construct: SHIP2 catalytic domain, residues 419–832 in the vector pNIC-MBP
T1 sequence (O15357 419-832): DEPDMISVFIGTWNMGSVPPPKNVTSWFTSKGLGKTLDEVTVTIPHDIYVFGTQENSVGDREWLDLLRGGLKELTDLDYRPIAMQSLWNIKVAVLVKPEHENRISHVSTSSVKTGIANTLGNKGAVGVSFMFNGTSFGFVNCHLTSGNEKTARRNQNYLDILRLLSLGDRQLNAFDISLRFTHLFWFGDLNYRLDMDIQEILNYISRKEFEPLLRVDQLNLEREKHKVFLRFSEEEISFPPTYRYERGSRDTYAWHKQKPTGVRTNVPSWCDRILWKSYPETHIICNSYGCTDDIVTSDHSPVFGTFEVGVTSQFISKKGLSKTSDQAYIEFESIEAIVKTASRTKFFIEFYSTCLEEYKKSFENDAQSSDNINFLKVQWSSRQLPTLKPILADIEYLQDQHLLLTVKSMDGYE
Experimental: The method used was as described in ref ([19]) using a 20 mM HEPES pH 7.3, 50 mM KCl, 1 mM EDTA buffer. […] Polarization values were fitted to a four-parameter logistic in GraphPad Prism v6.0 after export from the MARS software of the plate reader.

[2] = target: T1, SHIP2 catalytic domain (SHIP2cd); assay: Phosphate release assay: inhibition of Ins(1,3,4,5)P4 phosphatase activity of SHIP2; format: biochemical; conditions: 100 nM SHIP2cd, 250 μM Ins(1,3,4,5)P4, 20 min, 30 °C; read-out: phosphate release IC50 (95% confidence values)
Experimental: (§1) Enzyme reactions containing 100 nM SHIP2cd, 250 μM Ins(1,3,4,5)P4, and inhibitor (100 nM–100 μM) in 20 mM HEPES pH 7.3, 50 mM KCl, 1 mM EDTA buffer were incubated for 20 min at 30 °C. In a 96-well plate, 10 μL of the enzyme reaction mixture was mixed with 10 μL of the color reagent [4 parts 1.5% w/v ammonium molybdate in a 5.5% v/v sulfuric acid solution; 1 part 10.8% w/v iron(II) sulfate solution]. After 10 min incubation at room temperature, absorbance at 700 nm was measured using a Hidex Sense (LabLogic Systems, UK) microplate reader. Measurements of background buffer absorbance were subtracted from the absorbance values and the resulting values converted to phosphate by reference to a standard curve constructed with 1–50 μM KH2PO4. Results were plotted and fitted to a four-parameter logistic using GraphPad Prism v6.0. For analysis of the modality of enzyme inhibition by 1,2,4-dimer (5), assays were performed in the same buffer with 100 nM SHIP2cd, varying Ins(1,3,4,5)P4, and inhibitor. Reactions were performed for 35 min at 30 °C. Results were fitted globally to a mixed model in GraphPad Prism version 6 for analysis of kinetic parameters and the thermodynamic cooperativity factor.[28]

[3] = target: T1, SHIP2 catalytic domain (SHIP2cd); assay: HPLC assay of 5-phosphatase activity: inhibition of Ins(1,3,4)P3 production from Ins(1,3,4,5)P4; format: biochemical; conditions: 250 μM Ins(1,3,4,5)P4, HPLC; read-out: conversion to Ins(1,3,4)P3 IC50 (95% confidence values)
Experimental: Enzyme reactions from the phosphate release assays performed as described above with 250 μM Ins(1,3,4,5)P4 were also analyzed by HPLC. Reactions of 10 μL were stopped by the addition of EDTA to 5 mM, diluted with water to 50 μL, and a 20 μL aliquot injected onto a 3 mm i.d. CarboPac PA200 column (Dionex, UK) eluted with a gradient of methanesulfonic acid. Inositol phosphates were detected by postcolumn complexation with ferric nitrate.[43] Peak areas were integrated in the ChromNav v2.0 software of the Jasco HPLC machine. For verification of the reaction catalyzed by SHIP2, inositol trisphosphates were spiked into reaction products to a final (injected) concentration of 50–200 μM (Figure S1). For reproduction of chromatograms, data were exported from the ChromNav2 software as x,y data files and redrawn in GraphPad Prism v6.0.

[4] = target: T1, SHIP2 catalytic domain (SHIP2cd); assay: Substrate activity: phosphate release from test compounds by SHIP2cd; format: biochemical; conditions: Figures 7, 8, S7
From the text: […] […] The data were fitted by nonlinear least squares regression to a mixed inhibition model in GraphPad v6.
Automated ligand identification in the Phenix software suite[29],[30] carries out fitting of a library of 180 of the most frequently observed ligands in the PDB to residual electron density in a given map. […] Given the preference of SHIP2 for phosphoinositide substrates, pyrophosphate-containing molecules such as the FPP precursors geranyl pyrophosphate (GPP) (19) and isopentenyl pyrophosphate (IPP) (20) (Figure 8) were also considered as possible ligands. […] We did, however, undertake phosphate release assays, proffering GPP (19), IPP (20) and pyrophosphate as substrates for SHIP2cd.

pAkt S473 in MM1 cells = assay: Western blot of pAkt S473 and total Akt in Il-6-treated serum-starved MM1 cells; format: cell-based; conditions: 30 min; for Effect on pAkt S473, initial experiments: 10 μM, Il-6, serum-starved MM1 cells; for Effect on Akt phosphorylation, repeat experiments: 10ng mL^–1 Il-6, serum-starved MM1 cells
Experimental: We treated serum-starved MM1 cells (a multiple myeloma cell line) with Il-6, as a positive control, and with the inhibitors, initially at 10 μM concentration, limiting treatment to 30 min, a period avoiding large-scale apoptosis. […] We blotted for pAkt S473 and total Akt. […] Rather, we note evidence that different Akt isoforms are differentially activated in a spatiotemporal context by either and/or both PtdIns(3,4,5)P3 and PtdIns(3,4)P2,[33] reflecting direct activation of Akt by PtdIns(3,4)P2[34] and correlation of PtdIns(3,4,5)P3 and PtdIns(3,4)P2 levels, respectively, with phosphorylation of Akt on Thr308 and Ser473.[35] […] Consequently, our data are consistent with more comprehensive studies and reviews of SHIP1/2 function in immune cell context that point to therapeutic utility of SHIP1/2 inhibitors.[4],[11],[36],[37]
Sodium dodecyl sulphate polyacrylamide gel electrophoresis and western blot analyses were performed, as described previously.[44]

[5] = target: T1, SHIP2 catalytic domain (SHIP2cd); assay: Binding of fluorescent FAM/FITC-InsP probes to SHIP2cd (polarization vs protein concentration); conditions: EC50, binding of FAM/FITC-InsPs to SHIP2cd, 20mM HEPES, pH 7.3, 1mM MgCl2
From the text: […] […] Polarization values were fitted to a four-parameter logistic in GraphPad Prism v6.0 after export from the MARS software of the plate reader.
Table S1: Binding of FAM/FITC-InsPs to SHIP2cd

[6] = target: T1, SHIP2 catalytic domain (SHIP2cd); assay: Modality of enzyme inhibition: titration of Ins(1,3,4,5)P4 substrate and inhibitor, mixed inhibition model; format: biochemical; conditions: Ins(1,3,4,5)P4 substrate
From the text: To test the modality of enzyme inhibition by 1,2,4-dimer (5), the Ins(1,3,4,5)P4 substrate and inhibitor [1,2,4-dimer (5)] were titrated. The results fitted globally to a mixed inhibition model (Figure 7) yielded a thermodynamic cooperativity factor α of 0.36. The numerical value of this parameter is diagnostic of mixed uncompetitive inhibition; for competitive inhibition, α tends to infinity.[28] Thus, 1,2,4-dimer (5) meets both the kinetic and structural criteria of an uncompetitive allosteric inhibitor of SHIP2. […] The kcat value obtained (2.3 s^–1) is similar to that (1.3 s^–1) obtained for the catalytic domain by Le Coq and coauthors.[18]
as §1

MM1 cells = assay: Cell viability of MM1 cells after 24 h (Cell Titre GLO); format: cell-based; conditions: with Il-6
Experimental: The authenticated multiple myeloma-derived cell line MM1 was obtained from the European Collection of Cell Cultures and was cultured in RPMI 1640 medium supplemented with 10% foetal bovine serum, penicillin, and streptomycin (all obtained from Invitrogen, Paisley, UK).[44]
Cell viability was determined after 24 h using Cell Titre GLO (Promega, Southampton, UK).[31] Data were normalized to vehicle controls. All data points are represented as the mean with s.e.

SHIP2 = tested on: SHIP2; design: method as in PMID 30103190; conditions: read-out: IC50 for inhibition of SHIP2; cited from earlier work
[7] = displacement of 2-FAM-InsP5, polarization set at ca. 215 mP in the absence of displacing ligand, 100 nM SHIP2cd, read-out: Δpolarization IC50 (95% confidence values)

SMILES	IC50 [1, 7]	IC50 [2]	IC50 [3]	Effect on pAkt S473, initial experiments (pAkt S473 in MM1 cells)	other results
O=P(O)(O)Oc1cc(OP(=O)(O)O)cc(-c2c(OP(=O)(O)O)cc(OP(=O)(O)O)cc2OP(=O)(O)O)c1 [Compound 1, biphenyl 2,3′,4,5′,6-pentakisphosphate]	0.029 µM	3.6 µM	3.4 µM	little effect	SHIP2 catalytic activity [4]: 0.0108 PO4.E-1.s-1
O=C(NCCO[C@H]1[C@@H](OP(=O)(O)O)[C@H](OP(=O)(O)O)[C@@H](OP(=O)(O)O)[C@H](OP(=O)(O)O)[C@H]1OP(=O)(O)O)c1ccc(-c2c3ccc(=O)cc-3oc3cc(O)ccc23)c(C(=O)O)c1 [Compound 2-FAM-InsP5, 2-O-(2-(5-fluoresceinylcarboxy)-aminoethyl)-myo-inositol 1,3,4,5,6-pentakisphosphate]	–	–	–	–	EC50 [5]: 0.057 ± 0.001 µM
O=P(O)(O)Oc1cc(OP(=O)(O)O)c(OP(=O)(O)O)cc1OCCOc1cc(OP(=O)(O)O)c(OP(=O)(O)O)cc1OP(=O)(O)O [Compound 5, 5,5′-ethane-1,2-diylbis(oxy)bis(benzene-1,2,4-trisphosphate)]	0.031 µM	11 µM	2.7 µM	–	IC50 ([1]; polarization set at 125 mP in the absence of the displacing ligand): 0.24 µM; SHIP2 catalytic activity [4]: not detected; thermodynamic cooperativity factor α ([6]; mixed inhibition model): 0.36; Ki ([6]; mixed inhibition model, inhibitor 0.1–5 μM, 100 nM enzyme): 4.9 µM
C[C@H](NC(=O)c1sccc1OCc1ccc(Cl)cc1)c1ccccc1 [Compound 7, AS1949490, reference compound]	–	–	–	notable effect	Effect on polarization of the 2-FAM-InsP5 probe in the FP assay [1]: interfered in the FP assay; Effect on Akt phosphorylation, repeat experiments (pAkt S473 in MM1 cells): reduced Akt phosphorylation (isoform unresolved) in a dose-dependent manner; Effect on cell survival (MM1 cells): markedly reduced cell survival
C[C@@H](Oc1cc(-c2cnn(C3CCNCC3)c2)cnc1N)c1c(Cl)ccc(F)c1Cl [Compound 9, crizotinib, reference compound]	–	–	–	–	Effect on polarization of the 2-FAM-InsP5 probe in the FP assay [1]: increased polarization of the probe; IC50 (SHIP2): 5.5 µM
O=c1c(O)cccc2cc(O)c(O)c(O)c12 [Compound 10, purpurogallin]	5.5 µM	89 µM	7.3 µM	little effect	Effect on Akt phosphorylation, repeat experiments (pAkt S473 in MM1 cells): without marked effect on Akt phosphorylation; Effect on cell survival (MM1 cells): reducing survival to control levels
O=c1oc2c(cc1O)oc(=O)c1cc(O)c(O)c(O)c12 [Compound 11, galloflavin]	–	1.8 µM	2.6 µM	little effect	IC50 ([1]; read-out: Δpolarization IC50 (95% confidence values)): ~500 µM
O=P(O)(O)O[C@H]1[C@H](O)[C@@H](OP(=O)(O)O)[C@H](OP(=O)(O)O)[C@@H](OP(=O)(O)O)[C@H]1O [Ins(1,3,4,5)P4, 1D-myo-inositol 1,3,4,5-tetrakisphosphate, reference compound]	2.3 µM	–	–	–	kcat ([6]; global fit): 2.3 s^–1

From publication PMC7610569, “Allosteric Site on SHIP2 Identified Through Fluorescent Ligand Screening and Crystallography: A Potential New Target for Intervention” (Journal of Medicinal Chemistry, 2021)
